# Data from patent US20060069132A1, “Azolecarboxamide herbicides” (priority 2004, published 2006).
# Experiments:
# Russian thistle = experiment: Test E pre-/postemergence herbicide test; type: in vivo, Salsola kali; conditions: Preemergence
# Method in brief: (§1)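 Each species was compared with untreated controls 12 to 14 days after greenhouse application and assigned a visual score from 0 (no effect) to 100 (complete control). Applications were preemergence to seeded soil or postemergence to 1- to 4-leaf plants, using a solvent-plus-surfactant formulation.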
# prickly sida = experiment: Test E pre-/postemergence herbicide test; type: in vivo, Sida spinosa; conditions: Preemergence
# Method in brief: as §1
# Surinam grass = experiment: Test E pre-/postemergence herbicide test; type: in vivo, Urochloa decumbens; conditions: Preemergence
# Method in brief: as §1
# itchgrass = experiment: Test E pre-/postemergence herbicide test; type: in vivo, Rottboellia cochinchinensis; conditions: Preemergence
# Method in brief: as §1
# pitted morningglory = experiment: Test E pre-/postemergence herbicide test; type: in vivo, Ipomoea lacunosa; conditions: Preemergence
# Method in brief: as §1
# bermudagrass = experiment: Test E pre-/postemergence herbicide test; type: in vivo, Cynodon dactylon; conditions: Preemergence
# Method in brief: as §1
# common chickweed = experiment: Test E pre-/postemergence herbicide test; type: in vivo, Stellaria media; conditions: Preemergence
# Method in brief: as §1
# purple nutsedge = experiment: Test E pre-/postemergence herbicide test; type: in vivo, Cyperus rotundus; conditions: Preemergence
# Method in brief: as §1
# quackgrass = experiment: Test E pre-/postemergence herbicide test; type: in vivo, Elytrigia repens; conditions: Preemergence
# Method in brief: as §1
# annual bluegrass = experiment: Test E pre-/postemergence herbicide test; type: in vivo, Poa annua; conditions: Preemergence
# Method in brief: as §1
# bipinnate beggarticks = experiment: Test E pre-/postemergence herbicide test; type: in vivo, Bidens bipinnata; conditions: Preemergence
# Method in brief: as §1
# canarygrass = experiment: Test C postemergence herbicide test; type: in vivo, Phalaris minor
# Method in brief: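 Postemergence sprays were applied to plants 2 to 18 cm tall (1- to 4-leaf stage); in the flooded paddy test, barnyardgrass was grown to the 2-leaf stage. After 12 to 14 days in a greenhouse, injury was visually rated against untreated controls on a 0–100 scale (100 = complete control).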
# common sowthistle = experiment: Test E pre-/postemergence herbicide test; type: in vivo, Sonchus oleraceous; conditions: Preemergence
# Method in brief: as §1
# [1] = 500 g ai/ha, scale 0 (no effect) to 100 (complete control)
# [2] = 250 g ai/ha, scale 0 (no effect) to 100 (complete control)
compound,measurement,setting,value
CCc1nn(C(C)(C)C)nc1C(=O)Nc1cccc(C(=S)N(C)C)c1 [Compound 395],"Plant response rating, Thistle",Russian thistle; [1],60
same,"Plant response rating, Prickly Sida","prickly sida; 62 g ai/ha, scale 0 to 100",60
same,"Plant response rating, Prickly Sida","prickly sida; 125 g ai/ha, scale 0 to 100",95
same,"Plant response rating, Prickly Sida",prickly sida; [2],95
same,"Plant response rating, Prickly Sida",prickly sida; [1],95
same,"Plant response rating, Surinam Grass","Surinam grass; 125 g ai/ha, scale 0 to 100",75
same,"Plant response rating, Surinam Grass",Surinam grass; [1],90
same,"Plant response rating, Itchgrass","itchgrass; 62 g ai/ha, scale 0 to 100",20
same,"Plant response rating, Itchgrass","itchgrass; 125 g ai/ha, scale 0 to 100",60
same,"Plant response rating, Itchgrass",itchgrass; [2],60
same,"Plant response rating, Itchgrass",itchgrass; [1],80
same,"Plant response rating, Morningglory","pitted morningglory; 62 g ai/ha, scale 0 to 100",20
same,"Plant response rating, Morningglory","pitted morningglory; 125 g ai/ha, scale 0 to 100",40
same,"Plant response rating, Morningglory",pitted morningglory; [2],75
same,"Plant response rating, Morningglory",pitted morningglory; [1],75
same,"Plant response rating, Bermudagrass","bermudagrass; 62 g ai/ha, scale 0 to 100",90
same,"Plant response rating, Bermudagrass","bermudagrass; 125 g ai/ha, scale 0 to 100",95
same,"Plant response rating, Bermudagrass",bermudagrass; [2],95
same,"Plant response rating, Bermudagrass",bermudagrass; [1],95
same,"Plant response rating, Chickweed","common chickweed; 125 g ai/ha, scale 0 to 100",90
same,"Plant response rating, Chickweed",common chickweed; [2],100
same,"Plant response rating, Chickweed",common chickweed; [1],100
same,"Plant response rating, Nutsedge, Purple","purple nutsedge; 125 g ai/ha, scale 0 to 100",50
same,"Plant response rating, Nutsedge, Purple",purple nutsedge; [2],70
same,"Plant response rating, Nutsedge, Purple",purple nutsedge; [1],80
same,"Plant response rating, Quackgrass","quackgrass; 62 g ai/ha, scale 0 to 100",60
same,"Plant response rating, Quackgrass","quackgrass; 125 g ai/ha, scale 0 to 100",80
same,"Plant response rating, Quackgrass",quackgrass; [2],85
same,"Plant response rating, Quackgrass",quackgrass; [1],90
same,"Plant response rating, Bluegrass","annual bluegrass; 62 g ai/ha, scale 0 to 100",30
same,"Plant response rating, Bluegrass","annual bluegrass; 125 g ai/ha, scale 0 to 100",80
same,"Plant response rating, Bluegrass",annual bluegrass; [2],95
same,"Plant response rating, Bluegrass",annual bluegrass; [1],95
same,"Plant response rating, Beggarticks, Bip.","bipinnate beggarticks; 62 g ai/ha, scale 0 to 100",40
same,"Plant response rating, Beggarticks, Bip.","bipinnate beggarticks; 125 g ai/ha, scale 0 to 100",100
same,"Plant response rating, Beggarticks, Bip.",bipinnate beggarticks; [2],100
same,"Plant response rating, Beggarticks, Bip.",bipinnate beggarticks; [1],100
CCNC(=O)c1cccc(NC(=O)c2nn(C(C)(C)C)nc2C)c1 [Compound 392],"Plant response rating, Thistle","Russian thistle; 125 g ai/ha, scale 0 to 100",10
same,"Plant response rating, Thistle",Russian thistle; [1],100
same,"Plant response rating, Prickly Sida",prickly sida; [2],75
same,"Plant response rating, Prickly Sida",prickly sida; [1],100
same,"Plant response rating, Surinam Grass","Surinam grass; 125 g ai/ha, scale 0 to 100",60
same,"Plant response rating, Surinam Grass",Surinam grass; [1],95
same,"Plant response rating, Itchgrass","itchgrass; 62 g ai/ha, scale 0 to 100",50
same,"Plant response rating, Itchgrass","itchgrass; 125 g ai/ha, scale 0 to 100",85
same,"Plant response rating, Itchgrass",itchgrass; [2],85
same,"Plant response rating, Itchgrass",itchgrass; [1],90
same,"Plant response rating, Morningglory","pitted morningglory; 62 g ai/ha, scale 0 to 100",10
same,"Plant response rating, Morningglory","pitted morningglory; 125 g ai/ha, scale 0 to 100",40
same,"Plant response rating, Morningglory",pitted morningglory; [2],40
same,"Plant response rating, Morningglory",pitted morningglory; [1],75
same,"Plant response rating, Canarygrass","canarygrass; Postemergence, 250 g ai/ha, scale 0 to 100, 0 no effect, 100 complete control",50
same,"Plant response rating, Canarygrass","canarygrass; Postemergence, 500 g ai/ha, scale 0 to 100, 0 no effect, 100 complete control",65
same,"Plant response rating, Canarygrass","canarygrass; postemergence, 125 g ai/ha, scale 0 to 100",45
same,"Plant response rating, Canarygrass","canarygrass; postemergence, 62 g ai/ha, scale 0 to 100",40
same,"Plant response rating, Bermudagrass","bermudagrass; 62 g ai/ha, scale 0 to 100",60
same,"Plant response rating, Bermudagrass","bermudagrass; 125 g ai/ha, scale 0 to 100",60
same,"Plant response rating, Bermudagrass",bermudagrass; [2],85
same,"Plant response rating, Bermudagrass",bermudagrass; [1],90
same,"Plant response rating, Chickweed","common chickweed; 62 g ai/ha, scale 0 to 100",60
same,"Plant response rating, Chickweed","common chickweed; 125 g ai/ha, scale 0 to 100",95
same,"Plant response rating, Chickweed",common chickweed; [2],95
same,"Plant response rating, Chickweed",common chickweed; [1],95
same,"Plant response rating, Quackgrass","quackgrass; 62 g ai/ha, scale 0 to 100",10
same,"Plant response rating, Quackgrass","quackgrass; 125 g ai/ha, scale 0 to 100",60
same,"Plant response rating, Quackgrass",quackgrass; [2],70
same,"Plant response rating, Quackgrass",quackgrass; [1],95
same,"Plant response rating, Sowthistle","common sowthistle; 62 g ai/ha, scale 0 to 100",20
same,"Plant response rating, Sowthistle","common sowthistle; 125 g ai/ha, scale 0 to 100",95
same,"Plant response rating, Sowthistle",common sowthistle; [2],95
same,"Plant response rating, Sowthistle",common sowthistle; [1],95
same,"Plant response rating, Bluegrass","annual bluegrass; 62 g ai/ha, scale 0 to 100",10
same,"Plant response rating, Bluegrass","annual bluegrass; 125 g ai/ha, scale 0 to 100",80
same,"Plant response rating, Bluegrass",annual bluegrass; [2],80
same,"Plant response rating, Bluegrass",annual bluegrass; [1],100
same,"Plant response rating, Beggarticks, Bip.","bipinnate beggarticks; 125 g ai/ha, scale 0 to 100",10
same,"Plant response rating, Beggarticks, Bip.",bipinnate beggarticks; [2],80
same,"Plant response rating, Beggarticks, Bip.",bipinnate beggarticks; [1],100
